Tests used:
SNB-19 = assay: NCI sixty human tumor cell line screen, CNS panel; format: cell-based; settings: SNB-19, CNS, NCI protocol
Experimental: (§1) The in vitro anticancer activity studies for these N-((1-benzyl-1H-1,2,3-triazol-4-yl)methyl) arylamide analogues were carried out at the National Cancer Institute, USA.
(§2) The N-((1-benzyl-1H-1,2,3-triazol-4-yl)methyl)arylamide analogues have been tested at NCI, USA, against sixty human tumor cell lines derived from nine cancer types (leukemia, non-small cell lung cancer, colon cancer, CNS cancer, melanoma cancer, ovarian cancer, renal cancer, prostate cancer and breast cancer). For these compounds results are expressed as growth inhibition (GI50) values as per NCI protocol.

U251 = assay: NCI sixty human tumor cell line screen, CNS panel; format: cell-based; settings: U-251, NCI protocol
Experimental: as §1, §2

SF-539 = assay: NCI sixty human tumor cell line screen, CNS panel; format: cell-based; settings: SF-539, CNS, NCI protocol
Experimental: as §1, §2

SNB-75 = assay: NCI sixty human tumor cell line screen, CNS panel; format: cell-based; settings: SNB-75, CNS, NCI protocol
Experimental: as §1, §2

SF-295 = assay: NCI sixty human tumor cell line screen, CNS panel; format: cell-based; settings: SF-295, CNS, NCI protocol
Experimental: as §1, §2

SF-268 = assay: NCI sixty human tumor cell line screen, CNS panel; format: cell-based; settings: SF-268, CNS, NCI protocol
Experimental: as §1, §2

PC-3 = assay: NCI sixty human tumor cell line screen, Prostate panel; format: cell-based; settings: PC-3, Prostate, NCI protocol
Experimental: as §1, §2

DU-145 = assay: as above; format: cell-based; settings: DU-145, Prostate, NCI protocol
Experimental: as §1, §2

OVCAR-3 = assay: NCI sixty human tumor cell line screen, Ovarian panel; format: cell-based; settings: OVCAR-3, Ovarian, NCI protocol
Experimental: as §1, §2

OVCAR-8 = assay: as above; format: cell-based; settings: OVCAR-8, Ovarian, NCI protocol
Experimental: as §1, §2

SK-OV-3 = assay: as above; format: cell-based; settings: SK-OV-3, Ovarian, NCI protocol
Experimental: as §1, §2

OVCAR-4 = assay: as above; format: cell-based; settings: OVCAR-4, Ovarian, NCI protocol
Experimental: as §1, §2

NCI/ADR-RES = assay: as above; format: cell-based; settings: NCI protocol
Experimental: as §1, §2

KM12 = assay: NCI sixty human tumor cell line screen, Colon panel; format: cell-based; settings: NCI protocol
Experimental: as §1, §2

HT29 = assay: as above; format: cell-based; settings: HT-29, NCI protocol
Experimental: as §1, §2

HCT-116 = assay: as above; format: cell-based; settings: HCT-116, Colon, NCI protocol
Experimental: as §1, §2

COLO 205 = assay: as above; format: cell-based; settings: COLO 205, Colon, NCI protocol
Experimental: as §1, §2

SW-620 = assay: as above; format: cell-based; settings: SW-620, Colon, NCI protocol
Experimental: as §1, §2

BT-549 = assay: NCI sixty human tumor cell line screen, Breast panel; format: cell-based; settings: BT-549, Breast, NCI protocol
Experimental: as §1, §2

MDA-MB-31/ATCC = assay: as above; format: cell-based; settings: NCI protocol
Experimental: as §1, §2

HS 578T = assay: as above; format: cell-based; settings: NCI protocol
Experimental: as §1, §2

MDA-MB-468 = assay: as above; format: cell-based; settings: MDA-MB-468, Breast, NCI protocol
Experimental: as §1, §2

T-47D = assay: as above; format: cell-based; settings: T47D, NCI protocol
Experimental: as §1, §2

MDA-MB-435 = assay: NCI sixty human tumor cell line screen, Melanoma panel; format: cell-based; settings: MDA-MB-435, Melanoma, NCI protocol
Experimental: as §1, §2

SK-MEL-5 = assay: as above; format: cell-based; settings: SK-MEL-5, Melanoma, NCI protocol
Experimental: as §1, §2

M14 = assay: as above; format: cell-based; settings: NCI protocol
Experimental: as §1, §2

LOX IMVI = assay: as above; format: cell-based; settings: NCI protocol
Experimental: as §1, §2

SK-MEL-2 = assay: as above; format: cell-based; settings: SK-MEL-2, Melanoma, NCI protocol
Experimental: as §1, §2

SK-MEL-28 = assay: as above; format: cell-based; settings: SK-MEL-28, Melanoma, NCI protocol
Experimental: as §1, §2

UACC-62 = assay: as above; format: cell-based; settings: UACC-62, Melanoma, NCI protocol
Experimental: as §1, §2

A498 = assay: NCI sixty human tumor cell line screen, Renal panel; format: cell-based; settings: NCI protocol
Experimental: as §1, §2

ACHN = assay: as above; format: cell-based; settings: NCI protocol
Experimental: as §1, §2

RXF 393 = assay: as above; format: cell-based; settings: RXF 393, Renal, NCI protocol
Experimental: as §1, §2

CAKI-1 = assay: as above; format: cell-based; settings: CAKI-1, Renal, NCI protocol
Experimental: as §1, §2

UO-31 = assay: as above; format: cell-based; settings: UO-31, Renal, NCI protocol
Experimental: as §1, §2

SN12C = assay: as above; format: cell-based; settings: NCI protocol
Experimental: as §1, §2

TK-10 = assay: as above; format: cell-based; settings: TK-10, Renal, NCI protocol
Experimental: as §1, §2

A549/ATCC = assay: NCI sixty human tumor cell line screen, Non-small-cell-lung panel; format: cell-based; settings: NCI protocol
Experimental: as §1, §2

NCI-H226 = assay: as above; format: cell-based; settings: NCI protocol
Experimental: as §1, §2

HOP-62 = assay: as above; format: cell-based; settings: HOP-62, Non-small-cell-lung, NCI protocol
Experimental: as §1, §2

NCI-H460 = assay: as above; format: cell-based; settings: NCI protocol
Experimental: as §1, §2

NCI-H522 = assay: as above; format: cell-based; settings: NCI protocol
Experimental: as §1, §2

EKVX = assay: as above; format: cell-based; settings: NCI protocol
Experimental: as §1, §2

For `O=C(NCc1cn(Cc2cccc(Oc3ccccc3)c2)nn1)c1cccnc1Nc1ccc(F)cc1` [Compound 1b, 2-(4-Fluorophenylamino)-N-((1-(3-phenoxybenzyl)-1H-1,2,3-triazol4-yl)methyl)nicotinamide], the GI50 (SNB-19) was 20.7 µM, the GI50 (U251) was 7.12 µM and the GI50 (SF-539) was 15.1 µM. It also gave a GI50 (SNB-75) of 3.81 µM, a GI50 (SF-295) of 5.66 µM and a GI50 (SF-268) of 2.1 µM. For the same compound, the GI50 (PC-3) was 3.86 µM, the GI50 (DU-145) was 3.76 µM and the GI50 (OVCAR-3) was 2.98 µM. The GI50 (OVCAR-8) was 3.72 µM, the GI50 (SK-OV-3) was 3.11 µM and the GI50 (OVCAR-4) was 5.19 µM. It also gave a GI50 (NCI/ADR-RES) of 2.12 µM, a GI50 (KM12) of 5.61 µM and a GI50 (HT29) of 5.6 µM. The GI50 (HCT-116) was 5.02 µM, the GI50 (COLO 205) was 6.22 µM and the GI50 (SW-620) was 6.58 µM. For the same compound, the GI50 (BT-549) was 4.58 µM, the GI50 (MDA-MB-31/ATCC) was 3.09 µM and the GI50 (HS 578T) was 5.9 µM. For the same compound, the GI50 (MDA-MB-468) was 2.32 µM, the GI50 (T-47D) was 4.03 µM and the GI50 (MDA-MB-435) was 2.79 µM. The GI50 (SK-MEL-5) was 4.48 µM, the GI50 (M14) was 13.7 µM and the GI50 (LOX IMVI) was 61.3 µM. For the same compound, the GI50 (SK-MEL-2) was 34.2 µM, the GI50 (SK-MEL-28) was 7.98 µM and the GI50 (UACC-62) was 6.51 µM. For the same compound, the melting point was 160 to 162 °C, the GI50 (A498) was 2.35 µM and the GI50 (ACHN) was 4.79 µM. The GI50 (RXF 393) was 2.59 µM, the GI50 (CAKI-1) was 3.41 µM and the GI50 (UO-31) was 3 µM. For the same compound, the GI50 (SN12C) was 4.75 µM, the GI50 (TK-10) was 4.59 µM and the GI50 (A549/ATCC) was 6.11 µM. For the same compound, the GI50 (NCI-H226) was 38.6 µM, the GI50 (HOP-62) was 60.2 µM and the GI50 (NCI-H460) was 5.25 µM. For the same compound, the GI50 (NCI-H522) was 10.8 µM and the GI50 (EKVX) was 25.3 µM.
`COc1ccc(Nc2ncccc2C(=O)NCc2cn(Cc3cccc(Oc4ccccc4)c3)nn2)c(OC)c1` [Compound 1g, 2-(2,4-Dimethoxyphenylamino)-N-((1-(3-phenoxybenzyl)-1H-1,2,3-triazol-4-yl)methyl) nicotinamide] gave a GI50 (SNB-19) of 3.33 µM, a GI50 (U251) of 3.6 µM and a GI50 (SF-539) of 2.65 µM. The GI50 (SNB-75) was 3.41 µM, the GI50 (SF-295) was 0.56 µM and the GI50 (SF-268) was 3.88 µM. The GI50 (PC-3) was 0.62 µM, the GI50 (DU-145) was 3.37 µM and the GI50 (OVCAR-3) was 1.54 µM. The GI50 (OVCAR-8) was 4.1 µM, the GI50 (SK-OV-3) was 2.59 µM and the GI50 (OVCAR-4) was 5.11 µM. The GI50 (NCI/ADR-RES) was 2.12 µM, the GI50 (KM12) was 1.65 µM and the GI50 (HT29) was 3.26 µM. For the same compound, the GI50 (HCT-116) was 3.08 µM, the GI50 (COLO 205) was 2.14 µM and the GI50 (SW-620) was 2.12 µM. It also gave a GI50 (BT-549) of 3.51 µM, a GI50 (MDA-MB-31/ATCC) of 5.54 µM and a GI50 (HS 578T) of 2.94 µM. It also gave a GI50 (MDA-MB-468) of 1.46 µM, a GI50 (T-47D) of 4.28 µM and a GI50 (MDA-MB-435) of 0.25 µM. It also gave a GI50 (SK-MEL-5) of 0.72 µM, a GI50 (M14) of 2.13 µM and a GI50 (LOX IMVI) of 3.01 µM. It also gave a GI50 (SK-MEL-2) of 7.67 µM, a GI50 (SK-MEL-28) of 2.6 µM and a GI50 (UACC-62) of 1.43 µM. For the same compound, the melting point was 127 to 129 °C, the GI50 (A498) was 1.01 µM and the GI50 (ACHN) was 4.83 µM. The GI50 (RXF 393) was 7.83 µM, the GI50 (CAKI-1) was 1.71 µM and the GI50 (UO-31) was 8.06 µM. For the same compound, the GI50 (SN12C) was 1.71 µM, the GI50 (TK-10) was 3.14 µM and the GI50 (A549/ATCC) was 4.15 µM. For the same compound, the GI50 (NCI-H226) was 2.24 µM, the GI50 (HOP-62) was 12.7 µM and the GI50 (NCI-H460) was 3.05 µM. It also gave a GI50 (NCI-H522) of 1.82 µM and a GI50 (EKVX) of 5.09 µM.
For `O=C(NCc1cn(Cc2cccc(Oc3ccccc3)c2)nn1)c1cccnc1NCc1ccc(Cl)cc1` [Compound 1k, 2-(4-Chlorobenzylamino)-N-((1-(3-phenoxybenzyl)-1H-1,2,3-triazol-4-yl)methyl) nicotinamide], the GI50 (SNB-19) was 3.91 µM, the GI50 (U251) was 2.66 µM and the GI50 (SF-539) was 2.24 µM. It also gave a GI50 (SNB-75) of 2.02 µM, a GI50 (SF-295) of 2.8 µM and a GI50 (SF-268) of 4.82 µM. The GI50 (PC-3) was 2.96 µM, the GI50 (DU-145) was 4 µM and the GI50 (OVCAR-3) was 3.48 µM. For the same compound, the GI50 (OVCAR-8) was 3.63 µM, the GI50 (SK-OV-3) was 3.32 µM and the GI50 (OVCAR-4) was 3.37 µM. The GI50 (NCI/ADR-RES) was 2.86 µM, the GI50 (KM12) was 3.62 µM and the GI50 (HT29) was 2.96 µM. It also gave a GI50 (HCT-116) of 3.18 µM, a GI50 (COLO 205) of 2.18 µM and a GI50 (SW-620) of 4.04 µM. It also gave a GI50 (BT-549) of 2.72 µM, a GI50 (MDA-MB-31/ATCC) of 2.29 µM and a GI50 (HS 578T) of 2.72 µM. For the same compound, the GI50 (MDA-MB-468) was 3.44 µM, the GI50 (T-47D) was 3.2 µM and the GI50 (MDA-MB-435) was 2.33 µM. The GI50 (SK-MEL-5) was 2.53 µM, the GI50 (M14) was 2.49 µM and the GI50 (LOX IMVI) was 3.9 µM. It also gave a GI50 (SK-MEL-2) of 4.44 µM, a GI50 (SK-MEL-28) of 2.95 µM and a GI50 (UACC-62) of 2.08 µM. For the same compound, the melting point was 209 to 211 °C, the GI50 (A498) was 2.12 µM and the GI50 (ACHN) was 4.03 µM. For the same compound, the GI50 (RXF 393) was 2.19 µM, the GI50 (CAKI-1) was 4.36 µM and the GI50 (UO-31) was 3 µM. It also gave a GI50 (SN12C) of 3.44 µM, a GI50 (TK-10) of 3.7 µM and a GI50 (A549/ATCC) of 3.21 µM. For the same compound, the GI50 (NCI-H226) was 3.66 µM, the GI50 (HOP-62) was 5.69 µM and the GI50 (NCI-H460) was 2.85 µM. The GI50 (NCI-H522) was 2.18 µM and the GI50 (EKVX) was 3.65 µM.
